# From patent US20220265845A1, “AMINOTHIOLESTER COMPOUNDS AND USES THEREOF” (ADVANCED BIODESIGN, priority 2019, published 2022)
# Test system: Raji cells
# Assay: Cell cytotoxicity by Rituximab-compound 9 (Alamar Blue)
# Details: treatment of 50 μg/ml
# Method: 50 000 viable Raji cells were plated in triplicate. […] The cells were incubated for 48 h at which time 20 μl of Alamar Blue (Thermo Fisher Scientific) was added to each well. The plates were incubated for an additional four hours and the fluorescence intensity read on a plate reader using excitation wavelength of 540 nm and an emission wavelength of 620 nm.
row,Molecule,Mean viability of Raji cells in percentage comparing to the non-treated cells
1,"Rituximab: Antibody rituximab (Roche), target CD20 [reference compound]",85.50%±2.268%

# Test system: HL-60
# Assay: Cell viability assay (Resazurin), cytotoxicity in HL60 cells
# Type: cell-based
# Details: Homo sapiens, HL-60, read-out: IC50 at 48 h, 48 hours of incubation
# Method: Cell lines. Leukemic cell line, HL-60 (derived from a person with AML-M2), was used for determination of drug efficacy. Cells were obtained from the European Collection of Cell Cultures (ECACC). All cells were cultivated in appropriate media according to supplier recommendations.
# Cell Viability assay, 96-well format. Cells were seeded into 96-well cell culture plates at concentrations required to ensure approximately 80% confluence in control (untreated cells) at the end of experiment (0.5×10^4-5×10^4 cell/well).
# The sensitivity towards compounds according to the invention was determined using different concentrations of each compound ranging from 0.5 to 100 μM (0.5, 1, 2, 5, 10, 15, 20, 25, 30, 40, 50, 100 μM). Following 48 hours of incubation at 37° C. in a humidified atmosphere containing 5% CO2, the growth-inhibitory effect of compounds was analyzed using Resazurin, according to manufactures instructions.
# To ensure good data quality and to minimize impact of pipetting errors, each compounds concentration was assessed based on mean fluorescence intensity from 8 separate wells. Compounds response were quantified by the half maximal inhibitory concentration (IC50) for each particular cell line, and determined by non-linear regression analysis of log-dose/response curves.
# Statistical Analysis. Values were expressed as mean±SD or frequencies and proportions. Cell viability curves were determined using four parameter regression line. Differences between groups were determined by unpaired t test, Chi-square, Fisher's exact test or ANOVA, where appropriate. P<0.05 was considered statistically significant. Analysis was performed using GraphPad prism version 5.0 (GraphPad software, San Diego Calif. USA).
row,Molecule,IC50 [µM]
1,"CSC(=O)C#CC(C)(C)N(C)CCOCc1ccc2ccccc2c1 [Example 19, S-methyl 4-methyl-4-[methyl-[2-(2-naphthylmethoxy)ethyl]amino]pent-2-ynethioate]",11.3
2,"CCOC(=O)C#CC(C)(C)N(C)C [Example 14, ethyl 4-(dimethylamino)-4-methyl-pent-2-ynoate]",40
3,"CSC(=O)C#CC(C)(C)N1CC[C@@H](OCc2ccccc2)C1 [Example 28, (R)—S-methyl 4-(3-(benzyloxy)pyrrolidin-1-yl)-4-methylpent-2-ynethioate]",11.8
4,"CSC(=O)C#CC(C)(C)N(C)CCOCc1cccc(C)c1 [Example 4, S-methyl 4-methyl-4-[methyl-[2-(m-tolylmethoxy)ethyl]amino]pent-2-ynethioate]",5.62
5,"COc1ccc(COCCN(C)C(C)(C)C#CC(=O)SC)cc1OC [Example 7, S-methyl 4-[2-[(3,4-dimethoxyphenyl)methoxy]ethyl-methyl-amino]-4-methyl-pent-2-ynethioate]",6.08
6,"CSC(=O)C#CC(C)(C)N(C)CCOCC1=C(C)CCCC1(C)C [Example 20, S-methyl 4-methyl-4-[methyl-[2-[(2,6,6-trimethylcyclohexen-1-yl)methoxy]ethyl]amino]pent-2-ynethioate]",13.6
7,"CSC(=O)C#CC(C)(C)N(C)CCO [Example 18, S-methyl 4-((2-hydroxyethyl)(methyl)amino)-4-methylpent-2-ynethioate]",6.75
8,"CSC(=O)C#CC(C)(C)N(C)CCOC(=O)N(C)CCN(C)C [Example 23, S-methyl 2,5,10,11,11-pentamethyl-6-oxo-7-oxa-2,5,10-triazatetradec-12-yne-14-thioate]",10.6
9,"CSC(=O)C#CC(C)(C)N(C)CCCCOCc1ccccc1 [Example 17, S-methyl 4-((4-(benzyloxy)butyl)(methyl)amino)-4-methylpent-2-ynethioate]",11.3
10,"CSC(=O)C#CC(C)(C)N1CCC[C@H]1COCc1ccccc1 [Example 27, (S)—S-methyl 4-(2-((benzyloxy)methyl)pyrrolidin-1-yl)-4-methylpent-2-ynethioate]",10.4
11,"COC(=O)C#CC(C)(C)N(C)C [Example 13, methyl 4-(dimethylamino)-4-methyl-pent-2-ynoate]",42.7
12,"CSC(=O)C#CC(C)(C)N(C)CCOCc1cccc(F)c1 [Example 9, S-methyl 4-[2-[(3-fluorophenyl)methoxy]ethyl-methyl-amino]-4-methyl-pent-2-ynethioate]",6.65
13,"CO[C@@H]1CCN(C(C)(C)C#CC(=O)SC)C1 [Example 25, S-methyl 4-[(3R)-3-methoxypyrrolidin-1-yl]-4-methyl-pent-2-ynethioate]",16.5
14,"COC[C@@H]1CCCN1C(C)(C)C#CC(=O)SC [Example 24, (S)—S-methyl 4-(2-(methoxymethyl)pyrrolidin-1-yl)-4-methylpent-2-ynethioate]",20.5
15,"CSC(=O)C#CC(C)(C)N(C)CCOCc1cccnc1 [Example 11, S-methyl 4-methyl-4-[methyl-[2-(3-pyridylmethoxy)ethyl]amino]pent-2-ynethioate]",6.56
16,"CN(C)C(C)(C)C#CC(=O)SCC(=O)OC(C)(C)C [Example 15, tert-butyl 2-((4-(dimethylamino)-4-methylpent-2-ynoyl)thio)acetate]",25
17,"CSC(=O)C#CC(C)(C)N(C)CCOCc1cccc(Cl)c1 [Example 8, S-methyl 4-[2-[(3-chlorophenyl)methoxy]ethyl-methyl-amino]-4-methyl-pent-2-ynethioate]",7.07
18,"CSC(=O)C#CC(C)(C)N(C)CCOCc1ccccn1 [Example 10, S-methyl 4-methyl-4-[methyl-[2-(2-pyridylmethoxy)ethyl]amino]pent-2-ynethioate]",5.62
19,"COc1ccc(C(=O)OCCN(C)C(C)(C)C#CC(=O)SC)cc1OC [Example 22, 2-[(1,1-dimethyl-4-methylsulfanyl-4-oxo-but-2-ynyl)-methylamino]ethyl-3,4-dimethoxybenzoate]",15.3
20,"COc1ccc(COCCN(C)C(C)(C)C#CC(=O)SC)cc1 [Example 6, S-methyl 4-[2-[(4-methoxyphenyl)methoxy]ethyl-methyl-amino]-4-methyl-pent-2-ynethioate]",6.48
21,"CSC(=O)C#CC(C)(C)N(C)CCOCc1ccncc1 [Example 12, S-methyl 4-methyl-4-[methyl-[2-(4-pyridylmethoxy)ethyl]amino]pent-2-ynethioate]",5.68
22,"C=CCOCCN(C)C(C)(C)C#CC(=O)SC [Example 2, S-methyl 4-[2-allyloxyethyl(methyl)amino]-4-methyl-pent-2-ynethioate]",6.5
23,"CSC(=O)C#CC(C)(C)N(C)CCOC(C)=O [Example 21, 2-[(1,1-dimethyl-4-methylsulfanyl-4-oxo-but-2-ynyl)-methylamino]ethyl acetate]",12.7
24,"CCOCCN(C)C(C)(C)C#CC(=O)SC [Example 1, S-methyl 4-[2-ethoxyethyl(methyl)amino]-4-methyl-pent-2-ynethioate]",4.98
25,"CN(C)C(C)(C)C#CC(=O)SCC(=O)O [Example 16, 2-((4-(dimethylamino)-4-methylpent-2-ynoyl)thio)acetic acid]",22.5
26,"CSC(=O)C#CC(C)(C)N(C)[C@@H]1CCC[C@H]1OCc1ccccc1 [Example 26, S-methyl 4-(((1R,2R)-2-(benzyloxy)cyclopentyl)(methyl)amino)-4-methylpent-2-ynethioate]",17.5
